pIC50: −log10 of the molar value. Structures can show the parent of a compound that is named as a salt.
Key:
[1] = target: T1, 5HT1A receptor (Rattus norvegicus, UniProt P19327); experiment: In-Vitro inhibition of 5HT1A receptor binding (3H-8-OH-DPAT); set-up: species or system rat (male Wistar); conditions: 3H-8-OH-DPAT 1 nM, rat frontal cortex and hippocampus, 37° C., 10 min
T1 sequence (P19327 1-422): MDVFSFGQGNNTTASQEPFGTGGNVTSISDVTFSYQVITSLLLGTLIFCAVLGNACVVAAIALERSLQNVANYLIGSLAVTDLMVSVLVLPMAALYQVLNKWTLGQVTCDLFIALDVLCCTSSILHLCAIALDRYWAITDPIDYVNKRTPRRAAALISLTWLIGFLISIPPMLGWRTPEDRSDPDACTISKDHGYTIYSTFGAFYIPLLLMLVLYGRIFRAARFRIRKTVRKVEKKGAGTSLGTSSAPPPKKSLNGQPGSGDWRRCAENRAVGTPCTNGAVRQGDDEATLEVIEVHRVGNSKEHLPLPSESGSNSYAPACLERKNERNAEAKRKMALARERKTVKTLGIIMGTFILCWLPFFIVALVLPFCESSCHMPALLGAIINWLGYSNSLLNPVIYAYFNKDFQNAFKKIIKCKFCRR
Description: In-Vitro inhibition of 5HT1A receptor binding
(§1) Radioactive-labelled ligand ^3 H-80H-DPAT is incubated with isolated cell-membrane fragments at 37° C. for a given period of time. Following completed incubation, the incubate is filtered through GF/F filters which are rinsed after filtration to remove unspecifically adhered radioactivity. As opposed to low-molecular compounds, membrane fragments are not rinsed through the filters, the radioactivity bound to the filters indicates the amount of ligand bound specifically as well as nonspecifically to the membranes.
Male Wistar rats, 150-200 g are decapitated, and frontal cortex (approx. 200 mg) and hippocampus (approx. 70 mg) homogenized in 2×10 ml ice-cold DPAT buffer for 20 sec. applying polytron kinematica setting 6. Centrifuged at 20,000 rpm for 10 min. at 4° C. The pellet is transferred to 2×10 ml ice-cold DPAT buffer, homogenized for 20 sec. and preincubated for 10 min. at 37° C. Centrifuged at 20,000 rpm for 10 min. at 4° C. Final pellet added to 125×vol. of same buffer with 10 μM paragylin added (ex. 270 mg tissue in 33.75 ml DPAT buffer containing paragylin). Prepared fresh every day. Use within 30 minutes.
1,250 μl tissue 25 μl ^3 H-80H-DPAT (1 nM) 25 μl test substance/H2 O/blind serotonin (10 μM)
Incubation at 37° C. for 10 min.--at 10 sec. intervals. To the tubes is added 10 ml ice-cold 0.9% NaCl. Filtration through GF/F filters (use gloves). This procedure is repeated. Filters are placed in counting vials and 4 ml optiflow added (prepare in fume cupboard, use gloves). Counted at window 0-19 of the beta- counter (Pachard). Note that receptor box and lid are rinsed thoroughly in H2 O after use to avoid contamination. Further the analytical site is cleaned carefully every day.
Dissolved in H2 O, EtOH, MeOH or DMSO and further diluted in H2 O. The DPAT binding will stand concentrations of up to approx. 5% of these solvents without affecting the binding. Most stock solutions are stable at 4° C. Attention should, however, be paid to any precipitation, change in colour etc. Test-substance dilutions are always prepared fresh every day. When weighing out test substances, it is attempted to weigh out approx. 1 mg of substance. Less than 0.8 mg must never be weighed out and only infrequently more than 2 mg (for economy reasons) dependent, however on conc./assay.

[2] = target: Dopamine D2 receptor (Rattus norvegicus, UniProt P61169); experiment: In-Vitro Inhibition of Dopamine D2 Receptor Binding (3H-Spiroperidol); set-up: species or system rat (male Wistar); conditions: 3H-Spiroperidol 0.05 nM, rat striatum, 37° C., 20 min
Dopamine D2 receptor, sequence (P61169 whole entry): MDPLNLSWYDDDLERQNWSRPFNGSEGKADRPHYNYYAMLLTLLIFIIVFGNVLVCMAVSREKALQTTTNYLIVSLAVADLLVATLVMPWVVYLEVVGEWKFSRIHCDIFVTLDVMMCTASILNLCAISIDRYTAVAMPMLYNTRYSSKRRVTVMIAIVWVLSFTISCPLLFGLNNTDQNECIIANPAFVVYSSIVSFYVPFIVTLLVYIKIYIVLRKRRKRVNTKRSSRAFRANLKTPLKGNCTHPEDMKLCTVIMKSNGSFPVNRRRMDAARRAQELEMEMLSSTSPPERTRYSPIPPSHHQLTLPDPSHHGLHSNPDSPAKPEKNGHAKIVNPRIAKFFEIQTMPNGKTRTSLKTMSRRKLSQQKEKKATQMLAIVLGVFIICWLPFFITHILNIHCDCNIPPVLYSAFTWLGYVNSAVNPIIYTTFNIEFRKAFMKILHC
Description: In-Vitro Inhibition of Dopamine D2 Receptor Binding,
as §1, with “H-Spiroperidol” for “H-80H-DPAT”, “GF/B” for “GF/F”, “following” for “after”, “low- molecular” for “low-molecular”, “is indicative of” for “indicates”
The procedure is performed in ice bath. Polytron kinematica is rinsed with milli-Q-H2 O before and after use. Male Wistar rats, 150-200 g are decapitated, striatum is removed quickly and weighed (approx. 50 mg). Striatum is transferred to a centrifuging vial containing 10 ml ice-cold D2 buffer. Homogenization is performed applying polytron kinematica (homogenizer) setting 6 for 20 sec. The homogenizer is rinsed with 10 ml D2 buffer in another centrifuging vial. The 10 ml rinsing buffer is added to the tissue vial. Centrifugation at 18,000 rpm for 10 min. at 4° C. Final pellet is transferred to 1,000×vol. of same buffer. (Ex. 50 mg striatum in 50 ml D2 buffer). Can be stored at 0° C. for at least 4 hours. Note that the tissue must homogeneous (uniform) before use. If not, brief homogenization is performed.
2,500 μl tissue (homogeneous)
25 μl ^3 H-Spiroperidol (0.05 nM)
25 μl test substance/H2 O/blind (Domperidone 0.2 μM)
Incubation for 20 min. at 37° C.-10 min. on ice bath.
10 ml ice-cold 0.9% NaCl is added to the tubes and filtered through GF/B filters (use gloves). This procedure is repeated. The filters are placed in counting vials and 4 ml opti-flour is added (perform in fume cupboard, use gloves). Counting is performed at window 0-19 of the beta-counter (Pachard). Note that receptor box and lid are rinsed thoroughly in H2 O after use to avoid contamination. Further, the analytical site is cleaned carefully every day after use.
Dissolved in H2 O, EtOH, MeOH or DMSO and further diluted in H2 O. The D2 binding will stand concentrations of up to approx. 20% of these solvents without affecting the binding. Most stock solutions are stable at 4° C., attention is, however, paid to any precipitation, change in colour etc. Test-substance dilutions are always made fresh every day. When weighing out test substances, it is attempted to weigh out approx. 1 mg of substance. Less than 0.8 mg must never be weighed out and only infrequently more than 2 mg (for economy reasons), dependent, however, on conc./assay.

Structure (SMILES)	pIC50 [1]	pIC50 [2]
COc1ccc2cccc(N3CCN(CCCOC(=O)Nc4ccc5c(c4)OCO5)CC3)c2c1 [Example 34, 1-(7-Methoxy-1-naphthyl)-4-[3-(3,4-methylenedioxyphenylcarbamoyloxy)propyl]piperazine, HCl]	8.80	8.37
O=C(Nc1ccc2ncsc2c1)OCCCN1CCN(c2ccc(Cl)cc2)CC1 [Example 19, 4-(4-Chlorophenyl)-1-[3-(6-benzothiazolylcarbamoyloxy)propyl]piperazine, hydrochloride]	< 6.00	6.82
COc1cc(NC(=O)OCCCN2CCN(c3ccccc3Cl)CC2)cc(OC)c1OC.Cl [Example 3, 4-(2-Chlorophenyl)-1-[3-(3,4,5-trimethoxyphenylcarbamoyloxy)propyl]piperazine, hydrochloride]	< 6.52	6.92
COc1cc(NC(=O)OCCCN2CCN(c3ccc(F)cc3)CC2)cc(OC)c1OC [Example 8, 4-(4-Fluorophenyl)-1-[3-(3,4,5-trimethoxyphenylcarbamoyloxy)propyl]piperazine, hydrochloride]	< 6.00	6.14
